Where two headings read alike, the source gives them in different places.
Columns and labels:
[1] = molecular target: T1, Electrophorus electricus acetylcholinesterase (eeAChE) (Electrophorus electricus, UniProt O42275); assay: biochemical; details: for Selectivity Index (SI): SI = IC50 of BChE/IC50 of AChE
T1 construct: purchased Sigma-Aldrich C3389
Description: (§1) Enzymes from Electrophorus electricus (eeAChE) (Sigma-Aldrich, Cat. No. C3389) and equine serum (Equus caballus) BuChE (eqBuChE) […]. Stock solutions of the test compounds were prepared in potassium phosphate buffer (0.1 M, pH 8.0). The reaction mixture consisted of Ellman’s reagent (5,5′-dithiobis (2-nitrobenzoic acid), DTNB), enzyme (0.03 U/mL of eeAChE or eqBuChE), and the test compound. Pre-incubation was performed at 30°C for 10 minutes, followed by the addition of 1 mM acetylthiocholine iodide (ATCI) or butyrylthiocholine iodide (BTCI) as substrates. The reaction mixture was further incubated for 15 minutes. […] All assays were conducted in triplicate. IC50 values were calculated by nonlinear regression of compound concentration versus percentage inhibition.
(§2) All experiments were performed in triplicate, and the results are expressed as SEM. IC50 values were determined using nonlinear regression analysis (GraphPad Prism). All statistical analyses were performed using GraphPad Prism version 9.5.1 (GraphPad Software, San Diego, CA, USA).

[2] = molecular target: T2, equine serum butyrylcholinesterase (eqBuChE) (Equus caballus, UniProt P81908); assay: biochemical
T2 construct: equine serum (Equus caballus) BuChE (eqBuChE); purchased Sigma-Aldrich C3389; host or cells: equine serum
Description: as §1, §2

[3] = Ellman's method, mean ± SEM, n = 3, read-out: IC50 (μM) ± SEM (eeAChE)
[4] = Ellman's method, mean ± SEM, n = 3, read-out: IC50 (μM) ± SEM eqBuChE

T1 sequence (O42275 24-633): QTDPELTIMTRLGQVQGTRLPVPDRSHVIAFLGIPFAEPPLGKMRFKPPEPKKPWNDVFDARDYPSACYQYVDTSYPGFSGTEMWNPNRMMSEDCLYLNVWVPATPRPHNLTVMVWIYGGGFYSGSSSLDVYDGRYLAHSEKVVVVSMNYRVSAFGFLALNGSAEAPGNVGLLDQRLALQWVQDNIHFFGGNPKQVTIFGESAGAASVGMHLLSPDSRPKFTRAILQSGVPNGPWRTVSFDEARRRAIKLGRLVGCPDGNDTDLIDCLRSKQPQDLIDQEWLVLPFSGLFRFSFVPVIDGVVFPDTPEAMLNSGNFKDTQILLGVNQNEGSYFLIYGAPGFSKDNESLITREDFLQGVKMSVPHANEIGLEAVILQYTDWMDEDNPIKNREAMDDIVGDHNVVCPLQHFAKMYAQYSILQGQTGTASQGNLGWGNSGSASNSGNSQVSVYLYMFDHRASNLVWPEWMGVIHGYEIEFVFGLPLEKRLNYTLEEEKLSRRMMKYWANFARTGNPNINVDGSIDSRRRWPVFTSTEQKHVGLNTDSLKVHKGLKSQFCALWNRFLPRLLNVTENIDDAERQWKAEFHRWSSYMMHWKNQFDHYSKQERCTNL
T2 sequence (P81908 whole entry): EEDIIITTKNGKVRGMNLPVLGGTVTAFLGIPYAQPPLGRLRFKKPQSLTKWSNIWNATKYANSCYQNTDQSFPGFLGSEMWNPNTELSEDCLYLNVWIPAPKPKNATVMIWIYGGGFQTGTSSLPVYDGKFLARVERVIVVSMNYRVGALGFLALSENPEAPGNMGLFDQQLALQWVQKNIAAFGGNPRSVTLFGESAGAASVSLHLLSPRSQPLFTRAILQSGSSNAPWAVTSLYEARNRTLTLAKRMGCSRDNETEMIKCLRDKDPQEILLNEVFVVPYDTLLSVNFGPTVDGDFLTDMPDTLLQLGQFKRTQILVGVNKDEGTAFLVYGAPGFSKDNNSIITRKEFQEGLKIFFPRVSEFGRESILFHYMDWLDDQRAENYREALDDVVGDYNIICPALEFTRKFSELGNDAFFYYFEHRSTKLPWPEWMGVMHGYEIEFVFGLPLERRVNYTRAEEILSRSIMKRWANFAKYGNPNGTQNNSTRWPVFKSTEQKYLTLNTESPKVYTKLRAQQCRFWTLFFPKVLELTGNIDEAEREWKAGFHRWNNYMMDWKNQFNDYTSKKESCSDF

| Compound | IC50 [1, 3] | Selectivity Index (SI) [1] | IC50 [2, 4] | IC50 [1] | IC50 [2] |
| --- | --- | --- | --- | --- | --- |
| CC1(C)C=CC2=C(O1)C(=O)c1ccccc1C2=O [Dehydro-α-lapachone (4), Dehydro-α-lapachone] | 2.64 ± 0.08 µM | 21.1 | 55.6 ± 1.41 µM |  |  |
| COC(=O)C1(O)c2ccccc2C(=O)C1(O)CC=C(C)C (stereo not drawn) [Indanone derivative (5)] |  | 0.45 |  | 53.2 ± 1.29 µM | 24.2 ± 1.04 µM |
| CC(C)=CCC1=C(O)C(=O)c2ccccc2C1=O [Lapachol (1), Lapachol] |  | 13.6 |  | 5.04 ± 0.24 µM | 68.3 ± 1.06 µM |
| CC(C)=C(C)C1CC2(C)OC3=C(C(=O)c4ccccc4C3=O)C3C2C12C(=O)c1ccccc1C3(O)C2=O (stereo not drawn) [Peshawaraquinone (3), Peshawaraquinone] | 0.9 ± 0.04 µM | 9.3 | 8.39 ± 0.14 µM |  |  |
| CC1(C)CCC2=C(O1)C(=O)c1ccccc1C2=O [α-Lapachone (2), α-Lapachone] | 11 ± 0.97 µM | 3.6 | 39.1 ± 0.97 µM |  |  |

Source: paper PMC12413083, “Secondary metabolites isolated from Fernandoa adenophylla (Wall. ex G.Don) steenis as multitarget inhibitors of cholinesterases for the treatment of Alzheimer’s Disease, followed by molecular docking studies” (PLOS One, 2025)
